16 compounds from PubChem BioAssay AID248 (DTP/NCI, 2004) can be followed below.

Where “and” joins values, the source holds several entries; their conditions need not be identical. Equal entries are not always repeated. Toxic doses and inconclusive results are not listed.

This test has as its system L1210 leukemia ip in BDF1 mice, survival T/C. As to the kind of experiment: NCI In Vivo Anticancer Drug Screen. Data for tumor model L1210 Leukemia (intraperitoneal) in B6D2F1 (BDF1) mice. Particulars: endpoint: mean survival time, higher = longer survival. The procedure, abridged:
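Read-out is survival time, reported as the treated-group measurement over the vehicle-control measurement.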

The mark [1] stands for this setting: dose: 100.0 mg/kg/injection, schedule: Q01DX001 (ip), vehicle: carboxymethylcellulose (CMC).
[2] abbreviates: dose: 200.0 mg/kg/injection, schedule: Q01DX001 (ip), vehicle: carboxymethylcellulose (CMC).
[3] abbreviates: dose: 400.0 mg/kg/injection, schedule: Q01DX001 (ip), vehicle: carboxymethylcellulose (CMC).
Where [4] appears, read: dose: 100.0 mg/kg/injection, schedule: Q01DX009 (ip), vehicle: Klucel (hydroxypropylcellulose) (HPC).
The mark [5] stands for this setting: dose: 100.0 mg/kg/injection, schedule: Q04DX003 (ip), vehicle: Klucel (hydroxypropylcellulose) (HPC).
Setting [6] is: dose: 200.0 mg/kg/injection, schedule: Q01DX009 (ip), vehicle: Klucel (hydroxypropylcellulose) (HPC).
Where [7] appears, read: dose: 200.0 mg/kg/injection, schedule: Q04DX003 (ip), vehicle: Klucel (hydroxypropylcellulose) (HPC).
Setting [8] is: dose: 400.0 mg/kg/injection, schedule: Q01DX009 (ip), vehicle: Klucel (hydroxypropylcellulose) (HPC).
Where [9] appears, read: dose: 400.0 mg/kg/injection, schedule: Q04DX003 (ip), vehicle: Klucel (hydroxypropylcellulose) (HPC).

For `CC(=O)OCC(=O)[C@@]1(O)CC[C@H]2[C@@H]3CCC4=CC(=O)C=C[C@]4(C)[C@H]3C(=O)C[C@@]21C`, the T/C reads like this: (dose: 12.5 mg/kg/injection, schedule: Q01DX009 (ip), vehicle: Klucel (hydroxypropylcellulose) (HPC)) 93 % of control; (dose: 25.0 mg/kg/injection, schedule: Q01DX009 (ip), vehicle: Klucel (hydroxypropylcellulose) (HPC)) 98 % of control; (dose: 50.0 mg/kg/injection, schedule: Q01DX009 (ip), vehicle: Klucel (hydroxypropylcellulose) (HPC)) 103 % of control; (dose: 75.0 mg/kg/injection, schedule: Q01DX009 (ip), vehicle: Klucel (hydroxypropylcellulose) (HPC)) 100 % of control; (dose: 115.0 mg/kg/injection, schedule: Q01DX009 (ip), vehicle: Klucel (hydroxypropylcellulose) (HPC)) 98 % of control; (dose: 170.0 mg/kg/injection, schedule: Q01DX009 (ip), vehicle: Klucel (hydroxypropylcellulose) (HPC)) 103 % of control. In addition, for the setting “dose: 255.0 mg/kg/injection, schedule: Q01DX009 (ip), vehicle: Klucel (hydroxypropylcellulose) (HPC)”, the T/C is 86 % of control.
Consider `ClCCN(CCCl)c1ccc(-c2csc(Cc3ccccc3)n2)cc1`, for which the T/C runs as follows: under setting [1], 93 % of control; under setting [2], 92 % of control; under setting [3], 93 % of control.
`c1ccc(COc2ccc(Nc3ccccc3)cc2)cc1`: the T/C by setting is: under setting [4], 98 % of control; under setting [5], 106 % of control; under setting [6], 100 % of control; under setting [7], 103 % of control; under setting [8], 102 % of control; under setting [9], 94 % of control.
With `C/C=C(\C)C(=O)O[C@@H]1c2cc3c(cc2-c2c(cc(OC)c(OC)c2OC)[C@@H]2C(=O)OC[C@@H]12)OCO3`, the T/C runs as follows: (dose: 8.0 mg/kg/injection, schedule: Q01DX009 (ip), vehicle: saline + alcohol) 94 % of control; (dose: 12.0 mg/kg/injection, schedule: Q01DX009 (ip), vehicle: saline + alcohol) 108 % of control; (dose: 18.0 mg/kg/injection, schedule: Q01DX009 (ip), vehicle: saline + alcohol) 105 % of control; (dose: 27.0 mg/kg/injection, schedule: Q01DX009 (ip), vehicle: saline + alcohol) 100 % of control.
`C[C@@H]1CN(C(=O)CCOS(C)(=O)=O)[C@@H](C)CN1C(=O)CCOS(C)(=O)=O`: the T/C is 112 % of control (dose: 2.5 mg/kg/injection, schedule: Q01DX Z (ip), vehicle: carboxymethylcellulose (CMC)); 102 % of control (dose: 3.7 mg/kg/injection, schedule: Q01DX Z (ip), vehicle: carboxymethylcellulose (CMC)); 115 % of control (dose: 5.6 mg/kg/injection, schedule: Q01DX Z (ip), vehicle: carboxymethylcellulose (CMC)); 103 % of control (dose: 8.4 mg/kg/injection, schedule: Q01DX Z (ip), vehicle: carboxymethylcellulose (CMC)); 116 % of control (dose: 29.5 mg/kg/injection, schedule: Q01DX Z (ip), vehicle: carboxymethylcellulose (CMC)); 166 % of control (dose: 60.0 mg/kg/injection, schedule: Q01DX Z (ip), vehicle: carboxymethylcellulose (CMC)). The T/C reads like this: (dose: 198.0 mg/kg/injection, schedule: Q01DX Z (ip), vehicle: carboxymethylcellulose (CMC)) 117 % of control; (dose: 200.0 mg/kg/injection, schedule: Q01DX Z (ip), vehicle: carboxymethylcellulose (CMC)) 119 % of control; (dose: 201.0 mg/kg/injection, schedule: Q01DX Z (ip), vehicle: carboxymethylcellulose (CMC)) 91 % of control; (dose: 300.0 mg/kg/injection, schedule: Q01DX Z (ip), vehicle: carboxymethylcellulose (CMC)) 121 % of control and 90 % of control; (dose: 302.0 mg/kg/injection, schedule: Q01DX Z (ip), vehicle: carboxymethylcellulose (CMC)) 95 % of control.
`[CH3][Pb]([CH3])([CH3])[O]C(=O)c1ccc([N+](=O)[O-])cc1`: the T/C (dose: 12.5 mg/kg/injection, schedule: Q04DX002 (ip), vehicle: Klucel (hydroxypropylcellulose) (HPC)) is 97 % of control.
For the compound `CC(=O)OC1CC2C=CC1C2` (stereo unspecified), the T/C (dose: 100.0 mg/kg/injection, schedule: Q01DX009 (ip), vehicle: saline with Tween-80) is 93 % of control; the T/C (dose: 200.0 mg/kg/injection, schedule: Q01DX009 (ip), vehicle: saline with Tween-80) is 91 % of control; the T/C (dose: 400.0 mg/kg/injection, schedule: Q01DX009 (ip), vehicle: saline with Tween-80) is 86 % of control.
On to `CC1CN(C(=O)Nc2ccc(Cl)cc2)CC(C)O1` (stereo unspecified), for which the T/C reads like this: under setting [4], 100 % of control; under setting [5], 100 % of control; under setting [6], 101 % of control; under setting [7], 89 % of control; under setting [8], 113 % of control; under setting [9], 97 % of control.
On to `CCCCCCCCCCCC(=O)Nc1ccccc1C(F)(F)F`, for which the T/C (dose: 100.0 mg/kg/injection, schedule: Q01DX009 (ip), vehicle: acetone) is 96 % of control; the T/C (dose: 200.0 mg/kg/injection, schedule: Q01DX009 (ip), vehicle: acetone) was 95 % of control; the T/C (dose: 400.0 mg/kg/injection, schedule: Q01DX009 (ip), vehicle: acetone) is 94 % of control.
For `O=C(CCN1CC1)OCC1CC1`, the T/C by setting is: (dose: 2.5 mg/kg/injection, schedule: Q01DX009 (ip), vehicle: Klucel (hydroxypropylcellulose) (HPC)) 103 % of control; (dose: 5.0 mg/kg/injection, schedule: Q01DX009 (ip), vehicle: Klucel (hydroxypropylcellulose) (HPC)) 97 % of control; (dose: 10.0 mg/kg/injection, schedule: Q01DX009 (ip), vehicle: Klucel (hydroxypropylcellulose) (HPC)) 105 % of control; (dose: 20.0 mg/kg/injection, schedule: Q01DX009 (ip), vehicle: Klucel (hydroxypropylcellulose) (HPC)) 114 % of control; (dose: 20.0 mg/kg/injection, schedule: Q04DX003 (ip), vehicle: Klucel (hydroxypropylcellulose) (HPC)) 98 % of control; (dose: 40.0 mg/kg/injection, schedule: Q04DX003 (ip), vehicle: Klucel (hydroxypropylcellulose) (HPC)) 101 % of control. Besides, the T/C (dose: 80.0 mg/kg/injection, schedule: Q04DX003 (ip), vehicle: Klucel (hydroxypropylcellulose) (HPC)) is 97 % of control.
Consider `CCC(NC(=O)OCc1ccccc1)C(=O)O` (stereo unspecified), for which the T/C is 98 % of control (dose: 100.0 mg/kg/injection, schedule: Q04DX003 (ip), vehicle: saline with Tween-80); 93 % of control (dose: 200.0 mg/kg/injection, schedule: Q04DX003 (ip), vehicle: saline with Tween-80); 97 % of control (dose: 400.0 mg/kg/injection, schedule: Q04DX003 (ip), vehicle: saline with Tween-80).
With `C[C@H]1/C(=C/C(=O)OCCN(C)C)CC[C@H]2[C@H]1C(=O)C[C@H]1C(C)(C)[C@@H](O)CC[C@]21C`, the T/C (dose: 5.0 mg/kg/injection, schedule: Q01DX001 (ip), vehicle: other) is 106 % of control; the T/C (dose: 10.0 mg/kg/injection, schedule: Q01DX001 (ip), vehicle: other) is 97 % of control; the T/C (dose: 20.0 mg/kg/injection, schedule: Q01DX001 (ip), vehicle: other) is 97 % of control.
`COc1ccc(Oc2ccccc2)cc1-c1ccccc1`: the T/C under setting [1] was 93 % of control, the T/C under setting [2] was 102 % of control and the T/C under setting [3] is 96 % of control.
For `C=CCN(C)c1ccc(C(=O)OC)cc1` the same measures were 102 % of control, 94 % of control and 100 % of control.
Turning to `C=CCn1cnc(=N)c2[nH]cnc21`, the T/C is 94 % of control (dose: 50.0 mg/kg/injection, schedule: Q01DX009 (ip), vehicle: saline); 87 % of control (dose: 100.0 mg/kg/injection, schedule: Q01DX009 (ip), vehicle: saline); 90 % of control (dose: 100.0 mg/kg/injection, schedule: Q04DX003 (ip), vehicle: saline); 93 % of control (dose: 200.0 mg/kg/injection, schedule: Q01DX009 (ip), vehicle: saline); 94 % of control (dose: 200.0 mg/kg/injection, schedule: Q04DX003 (ip), vehicle: saline).
For `O=S(=O)(c1ccccc1)n1ccc2ccccc21`, the T/C by setting is: (dose: 100.0 mg/kg/injection, schedule: Q04DX002 (ip), vehicle: saline with Tween-80) 93 % of control; (dose: 200.0 mg/kg/injection, schedule: Q04DX002 (ip), vehicle: saline with Tween-80) 97 % of control; (dose: 400.0 mg/kg/injection, schedule: Q04DX002 (ip), vehicle: saline with Tween-80) 97 % of control.
